From paper PMC10650756, “Synthesis and In Vivo Antiarrhythmic Activity Evaluation of Novel Scutellarein Analogues as Voltage-Gated Nav1.5 and Cav1.2 Channels Blockers” (Molecules, 2023)

Columns and labels:
Type in all cases: cell-based
[1] = molecular target: T1, Nav1.5 (Homo sapiens, UniProt Q14524); assay: whole-cell patch clamp in transfected HEK293 cells; steady-state inactivation left-shifted at […], no change in current density or activation
T1 construct: gene SCN5A; human Nav1.5 (pCDNA3.1hSCN5A) expressed in HEK293 cells

[2] = molecular target: T2, Cav1.2 (Homo sapiens, UniProt Q13936); assay: whole-cell patch clamp of ICa in transfected HEK293 cells, VH -80 mV; IC50 undefined (solubility); conditions: read-out: % reduction of ICa amplitude at 30 μM
T2 construct: gene CACNA1C; human Cav1.2 expressed in HEK293 cells (plasmid printed as pCDNA3.1hCACNA2D)

[3] = molecular target: T2, Cav1.2; assay: whole-cell patch clamp of ICa in transfected HEK293 cells, VH -80 mV; conditions: read-out: % reduction of ICa amplitude at 1 μM

T2 sequence (Q13936 whole entry): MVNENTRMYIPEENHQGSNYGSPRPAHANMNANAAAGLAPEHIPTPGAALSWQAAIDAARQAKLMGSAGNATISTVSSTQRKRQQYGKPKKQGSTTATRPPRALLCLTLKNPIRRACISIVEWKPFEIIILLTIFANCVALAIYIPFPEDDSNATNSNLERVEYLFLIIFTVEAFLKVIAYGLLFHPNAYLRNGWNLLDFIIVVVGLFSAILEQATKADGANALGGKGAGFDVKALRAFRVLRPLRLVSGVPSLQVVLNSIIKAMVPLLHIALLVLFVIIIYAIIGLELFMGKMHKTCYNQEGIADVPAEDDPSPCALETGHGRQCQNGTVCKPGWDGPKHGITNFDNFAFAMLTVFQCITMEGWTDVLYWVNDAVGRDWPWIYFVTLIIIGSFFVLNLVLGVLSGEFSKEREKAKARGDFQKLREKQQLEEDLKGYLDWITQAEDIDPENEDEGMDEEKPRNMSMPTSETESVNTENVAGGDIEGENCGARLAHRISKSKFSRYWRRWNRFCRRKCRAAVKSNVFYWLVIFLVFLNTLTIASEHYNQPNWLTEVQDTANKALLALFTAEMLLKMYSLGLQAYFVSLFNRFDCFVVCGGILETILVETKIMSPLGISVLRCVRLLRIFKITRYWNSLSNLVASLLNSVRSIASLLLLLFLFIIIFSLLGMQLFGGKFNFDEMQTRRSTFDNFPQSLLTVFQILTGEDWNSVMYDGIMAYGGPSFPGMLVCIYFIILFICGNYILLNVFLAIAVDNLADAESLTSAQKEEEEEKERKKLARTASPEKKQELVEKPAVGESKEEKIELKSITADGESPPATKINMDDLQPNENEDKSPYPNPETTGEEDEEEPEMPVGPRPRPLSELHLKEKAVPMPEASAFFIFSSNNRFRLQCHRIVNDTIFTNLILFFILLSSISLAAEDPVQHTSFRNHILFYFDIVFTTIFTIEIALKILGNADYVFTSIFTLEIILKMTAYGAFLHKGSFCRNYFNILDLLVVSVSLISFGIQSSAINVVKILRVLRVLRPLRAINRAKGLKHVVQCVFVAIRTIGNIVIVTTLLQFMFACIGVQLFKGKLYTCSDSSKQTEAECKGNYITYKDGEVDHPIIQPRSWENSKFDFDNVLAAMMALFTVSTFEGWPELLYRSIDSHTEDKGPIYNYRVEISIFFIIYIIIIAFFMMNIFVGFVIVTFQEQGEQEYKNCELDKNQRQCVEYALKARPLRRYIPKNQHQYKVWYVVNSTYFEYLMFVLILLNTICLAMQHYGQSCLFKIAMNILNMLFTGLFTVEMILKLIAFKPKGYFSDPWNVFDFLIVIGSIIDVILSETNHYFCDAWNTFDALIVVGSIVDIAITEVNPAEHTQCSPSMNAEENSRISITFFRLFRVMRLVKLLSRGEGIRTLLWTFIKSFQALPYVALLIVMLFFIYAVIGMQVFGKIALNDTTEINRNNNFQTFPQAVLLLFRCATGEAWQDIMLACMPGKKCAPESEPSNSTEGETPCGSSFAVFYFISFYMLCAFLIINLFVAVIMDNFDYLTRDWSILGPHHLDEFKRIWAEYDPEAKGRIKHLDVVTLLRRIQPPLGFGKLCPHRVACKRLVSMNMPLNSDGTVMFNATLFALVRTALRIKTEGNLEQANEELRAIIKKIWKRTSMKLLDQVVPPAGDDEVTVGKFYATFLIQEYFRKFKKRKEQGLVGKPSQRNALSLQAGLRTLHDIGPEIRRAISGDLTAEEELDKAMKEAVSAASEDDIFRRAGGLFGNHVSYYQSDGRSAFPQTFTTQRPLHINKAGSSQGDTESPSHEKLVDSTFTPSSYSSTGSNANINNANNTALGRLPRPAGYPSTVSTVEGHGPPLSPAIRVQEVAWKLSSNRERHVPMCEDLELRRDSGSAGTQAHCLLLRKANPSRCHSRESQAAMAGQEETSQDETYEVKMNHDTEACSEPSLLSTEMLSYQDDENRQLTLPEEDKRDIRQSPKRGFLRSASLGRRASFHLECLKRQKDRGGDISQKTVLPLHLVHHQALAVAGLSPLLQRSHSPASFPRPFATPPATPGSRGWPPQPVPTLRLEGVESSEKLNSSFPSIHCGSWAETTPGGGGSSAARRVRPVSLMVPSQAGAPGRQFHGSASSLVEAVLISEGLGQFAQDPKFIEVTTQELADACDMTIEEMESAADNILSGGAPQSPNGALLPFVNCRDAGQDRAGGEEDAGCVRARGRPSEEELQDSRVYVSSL
T1 sequence (Q14524 whole entry): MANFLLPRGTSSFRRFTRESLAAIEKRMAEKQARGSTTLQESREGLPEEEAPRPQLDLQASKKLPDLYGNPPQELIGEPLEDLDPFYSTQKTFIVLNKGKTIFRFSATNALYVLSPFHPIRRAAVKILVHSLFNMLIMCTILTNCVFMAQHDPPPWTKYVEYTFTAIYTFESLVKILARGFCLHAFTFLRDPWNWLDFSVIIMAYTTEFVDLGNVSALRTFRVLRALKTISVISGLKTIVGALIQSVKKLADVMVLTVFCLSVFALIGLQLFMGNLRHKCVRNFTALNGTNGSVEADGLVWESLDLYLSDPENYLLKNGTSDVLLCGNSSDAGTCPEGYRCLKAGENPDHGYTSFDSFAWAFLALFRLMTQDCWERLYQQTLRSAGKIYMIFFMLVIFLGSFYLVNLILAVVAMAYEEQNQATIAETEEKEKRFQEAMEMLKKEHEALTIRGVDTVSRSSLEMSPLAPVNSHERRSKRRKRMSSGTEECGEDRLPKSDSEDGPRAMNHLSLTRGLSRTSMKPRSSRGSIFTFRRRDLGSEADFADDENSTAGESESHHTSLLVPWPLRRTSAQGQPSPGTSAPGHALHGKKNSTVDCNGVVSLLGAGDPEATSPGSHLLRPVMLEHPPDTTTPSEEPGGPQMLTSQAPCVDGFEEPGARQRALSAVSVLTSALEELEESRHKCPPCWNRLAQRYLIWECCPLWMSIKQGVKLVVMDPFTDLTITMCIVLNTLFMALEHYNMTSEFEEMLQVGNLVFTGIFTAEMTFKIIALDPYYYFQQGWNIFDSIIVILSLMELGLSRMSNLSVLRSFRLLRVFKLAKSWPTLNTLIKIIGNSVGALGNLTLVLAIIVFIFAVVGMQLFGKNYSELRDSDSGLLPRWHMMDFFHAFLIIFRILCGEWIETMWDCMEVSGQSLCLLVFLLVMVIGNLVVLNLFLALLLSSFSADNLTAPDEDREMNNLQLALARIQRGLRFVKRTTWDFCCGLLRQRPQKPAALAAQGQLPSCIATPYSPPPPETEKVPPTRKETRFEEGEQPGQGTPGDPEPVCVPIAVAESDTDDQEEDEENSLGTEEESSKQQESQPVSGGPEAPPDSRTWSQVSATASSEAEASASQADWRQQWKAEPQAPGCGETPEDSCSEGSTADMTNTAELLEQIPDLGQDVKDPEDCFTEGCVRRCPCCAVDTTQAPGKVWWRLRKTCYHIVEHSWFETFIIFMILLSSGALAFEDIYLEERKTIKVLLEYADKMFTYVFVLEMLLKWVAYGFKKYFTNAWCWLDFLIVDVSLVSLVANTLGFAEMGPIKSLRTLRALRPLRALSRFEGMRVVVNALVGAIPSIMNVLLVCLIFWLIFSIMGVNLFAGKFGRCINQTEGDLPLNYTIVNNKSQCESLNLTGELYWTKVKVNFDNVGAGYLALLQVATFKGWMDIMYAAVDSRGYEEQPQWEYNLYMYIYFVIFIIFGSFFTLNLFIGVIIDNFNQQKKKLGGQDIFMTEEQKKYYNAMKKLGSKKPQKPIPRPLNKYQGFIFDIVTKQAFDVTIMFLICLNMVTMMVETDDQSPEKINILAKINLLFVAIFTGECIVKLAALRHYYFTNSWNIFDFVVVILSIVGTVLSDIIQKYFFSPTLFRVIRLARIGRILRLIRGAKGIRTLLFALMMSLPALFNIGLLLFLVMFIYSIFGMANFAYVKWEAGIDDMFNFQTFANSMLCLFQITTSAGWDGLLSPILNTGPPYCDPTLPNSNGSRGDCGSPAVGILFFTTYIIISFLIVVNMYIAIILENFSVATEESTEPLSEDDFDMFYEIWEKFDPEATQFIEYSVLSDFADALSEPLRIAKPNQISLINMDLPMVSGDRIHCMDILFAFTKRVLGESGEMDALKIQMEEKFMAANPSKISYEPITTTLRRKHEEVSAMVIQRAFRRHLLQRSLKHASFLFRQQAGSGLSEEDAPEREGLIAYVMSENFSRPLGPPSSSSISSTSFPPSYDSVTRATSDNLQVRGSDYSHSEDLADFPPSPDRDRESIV

Structure (SMILES) | whole-cell patch clamp in transfected HEK293 cells; steady-state inactivation le [1] | inhibition at 30 µM [2] [%] | inhibition at 1 µM [3] [%]
CC(=O)Oc1ccc(-c2cc(=O)c3c(O)c4c(cc3o2)OC(c2ccccc2)(c2ccccc2)O4)cc1 [10e, 4-(9-Hydroxy-8-oxo-2,2-diphenyl-8H-[1,3]dioxolo[4,5-g]chromen-6-yl)phenyl acetate] | −94.1 ± 1.7 mV (inactivation V1/2 at 30 μM; control −84.4 ± 0.6 mV) | ~32.6 | –
COC(=O)C1=C(C)NC(C)=C(C(=O)OC)C1c1ccccc1[N+](=O)[O-] [Nifedipine] | – | – | ~97.9
